Entries after “also recorded” stand apart in the source; their conditions may differ.
Key:
UCP2 = experiment: QRT-PCR of UCP2 mRNA in IMR-32 cells; assay type: cell-based, human; conditions: 150 ppb, 6 hours
Method: Human IMR-32 cells were seeded on gelatinized 6-well (6.5×10^5 cells/well) or 24-well (1.3×10^5 cells/well) plates. Cells were treated with control (0 ppb) or various compounds for 6 hours or 24 hours. Total RNA from these cells was isolated using Trizol (Invitrogen) according to the manufacturer's protocol, and then incubated with DNase I to remove any potential contaminated genomic DNA. Then RNA samples were subjected to real-time PCR analysis using the Applied-Bioscience's RT kit and predesigned Taqman probes (Invitrogen), as described previously (Lan et al EMBO J 2003). The mRNA levels of UCP1, UCP2, UCP3, SLC25A27 (UCP4), SLC25A14 (UCP5), PSEN1, Nicastrin, GSK3B, MAPK11-14, PPARG, APOE, RCAN1, RCAN1.1, G6PC, INSR, IGF1R and FOXO4 were measured. Three to six samples were analyzed in each treatment group. Data were normalized by Actin B (ACTB) or Glyceraldehyde Phosphate Dehydrogenase (GAPDH) mRNA levels in each sample and are presented as mean±SEM of 3-6 samples.

[1] = tested on: phosphorylated Tau (pTau S396, pTau S400/T403/S404); experiment: Western blot of phosphorylated Tau in IMR-32 cells; assay type: cell-based, human; conditions: 150 ppb, 24 hours
Method: (§1) IMR-32 cells were seeded on 6-well plates and then treated with control and various compounds for 6 hours and 24 hours, as described above. After treatments, cells were rinsed with ice-cold PBS and lysed in ice-cold RIPA buffer containing complete proteinase and phosphatase inhibitors (Thermo-Fisher Scientific, Waltham, Mass.) on ice for 30 min Cell lysates were collected using a cell scraper and transfer pipette and then centrifuged at 12000×g for 30 min at 4° C. to remove the DNA pellet and obtain the protein extract. Protein levels in the supernatant of these cell lysates were determined using the Pierce Micro-BCA protein assay kit (Thermo Scientific-Piece Biotechnology, Rockford, Ill.) according to the manufacturer's protocol
For Western blot analysis, five micrograms of total proteins from control (0 ppb)- and compound(s)-treated cells were subjected to SDS-PAGE gel separation and then transferred to PVDF membranes, as described previously (Reddy, Liu et al. 2008 Science). Membranes were blocked in a phosphate-buffered saline (PBS) containing 5% (w/v) of bovine serum albumin (Sigma, St. Louis, Mo.) and incubated with specific primary antibodies followed by the incubation with HRP-conjugated anti-mouse or anti-rabbit secondary antibodies (1:5000 dilution, Cell Signaling Inc.). All primary antibodies except PGC1a (Abcam, Cambridge, Mass.), G6pc (Santa Cruz, Dallas, Tex.) and Actb (Li-Cor, Lincoln, Nebr.) were purchased from Cell Signaling Inc., Beverly, Mass.
Positive signals on the membrane blots were detected using Amersham's enhanced chemiluminescence (ECL) Western Blotting Prime Detection reagents (GE healthcare Lifescience, Pittsburgh, Pa.). Images of these luminescence signals on the membrane blots were captured using the LI-COR Odyssey Fc Image system (Lincoln, Nebr.). The same membrane blot was stripped and re-blotted with another antibody as described in the GE WB ECL-prime-detection protocol (GE Healthcare Lifescience, Pittsburgh, Pa.). Protein band densities in the Western blots were determined using the Li—COR Image studio software or NIH ImageJ software, and then normalized by ACTB protein level in each sample. Data are presented as mean±SEM of three samples per each group.
To determine whether selenium Compound C, Compound D or Compound E can potentially contribute to diminished tangle formation in AD, the phosphorylation of two AD biomarkers, pTau S396 (Serine 396) and pTauS400/T403/5404 (Serine 400, Threonine 403, and Serine 404), as well as the Total Tau protein levels was assessed in IMR-32 cells. Phosphorylation of Tau at the indicated amino acid sites has been associated with destabilization of the Tau protein and the eventual formation of tangles. For this purpose, cells were treated with 150 ppb of Compound C, Compound D, or Compound E for 6 hours and 24 hours, and then subjected to Western blot analysis (see FIG. 4A). Mean±SEM, n=3.

PSEN1 = experiment: Western blot of PSEN1 protein in IMR-32 cells; assay type: cell-based, human; conditions: 150 ppb, 24 hours
Method: as §1, with “protocol […]” for “protocol”
Positive signals on the membrane blots were detected using Amersham's enhanced chemiluminescence (ECL) Western Blotting Prime Detection reagents (GE healthcare Lifescience, Pittsburgh, Pa.). Images of these luminescence signals on the membrane blots were captured using the LI-COR Odyssey Fc Image system (Lincoln, Nebr.). […] Protein band densities in the Western blots were determined using the Li—COR Image studio software or NIH ImageJ software, and then normalized by ACTB protein level in each sample. […]

insoluble Aβ1-42 = experiment: ELISA of insoluble (FA-soluble) Aβ1-42 in the brains of APP/PS1 mice; assay type: in vivo, mouse; conditions: diet with 1 ppm Se from Compound C, 6 to 12 months of age, vs control mice
Method: Male APPΔNLh/ΔNLh×PS1P246 L/246 L knock-in model mice of Alzheimer's disease (abbreviated APP/PS1) were genotyped using standard primers for human APP (Amyloid Precursor Protein) and human PS1 (PSEN1). These APP/PS1 mice starting at the age of 6 months, were fed either a control diet containing normal levels of selenium (0.3 ppm from plant and inorganic selenium salt sources) or an experimental diet containing Compound C (the control diet to which was added 1 ppm Se from Compound C) for 6 months.
At 12 months of age, the mice were euthanized and the brains quickly removed, the cerebellum isolated and the hemispheres snap-frozen in liquid nitrogen and then stored at −80° C. for further immunohistochemistry (IHC), protein and RNA analysis. All procedures conducted on these animal studies were pre-approved by the University of Kentucky IACUC committee.
Frozen hemispheres of control- and Compound C-treated APP/PS1 mice were weighed and homogenized in PBS buffer. Insoluble Aβ fractions (formic acid (FA)-soluble fractions) were extracted from the homogenates using standard serial extraction protocols as described previously (Lovell et al, Free Radic Biol Med 2009; 46:1527-33) Insoluble Aβ1-42 levels (in the FA soluble fraction) were determined using standard sandwich ELISAs (Invitrogen), according to the manufacturer's procedure. […]

Row | SMILES | UCP2 mRNA expression (UCP2) | phosphorylation of Tau at 5400/T403/5404 [1] | phosphorylation of Tau at S396 [1] | ratio of total pTau at both S396 and S400/T403/S404 to total Tau proteins [1] | PSEN1 protein levels (PSEN1) | reduction of FA-soluble Aβ1-42 levels in the brains (insoluble Aβ1-42)
1 | C[Se]C[C@H](NC(=O)CC[C@H](N)C(=O)O)C(=O)O [Compound E, γ-L-glutamyl-Se-methyl-L-selenocysteine] | did not have any effect | significantly down-regulated | significantly down-regulated | trend towards reduced | – | –
2 | C[Se]C[C@H]1O[C@@H](n2cnc3c(N)ncnc32)C(O)C1O (stereo in doubt) [Compound C, 5′-deoxy-5′-methylselenoadenosine] | significant decrease; also recorded: inhibited | significantly inhibited | not at S396 | significantly attenuated | significant reduction | about 30%

From patent publication US10201558B2, “Compositions of selenoorganic compounds and methods of use thereof” (Alltech, Inc., priority 2014, dated 2019)
